Results reported in patent US20140119985A1, “Photodynamic Control of Microbial Growth on Surfaces” (ORTNER CLEANROOM ENGINEERING GMBH, priority 2010, published 2014).
Like-named read-outs stand apart in the source and are kept apart here.

Tests used:
Staphylococcus aureus [1] = assay: Contact assay on dye-treated textile pieces; format: cell-based; details: for cell growth: irradiation 1 min, distance 50 cm, about 10^4 cfu; for cfu calculated per ml cell culture: plates incubated 24 h; for number of colonies upon irradiation: distance 30 cm
Klebsiella pneumoniae = details: LED 623 nm
Experimental: (§1) Typically, 3 μl of a growing cell culture having a titer of 7×10^7 cfu/ml were used in contact assays, whereas 50 μl were employed in plating assays. In some assays, the cell cultures were employed in a dilution of 10^−1, 10^−2, 10^−3, 10^−4, and 10^−5, respectively.
For contact assays, pieces of the textile fabric having a defined size of 1 cm×1 cm were employed.
(§2) In contact assays, the distance between the radiation source and the piece of textile fabric was in a range between 10 cm and 60 cm.
In brief, the contact assays were performed as follows: Pieces of a textile fabric (ION-NOSTAT VI.2) having a defined size (1×1 cm) were immersed for 3 h in an aqueous solution of reactive dye, such as methylene blue (100 μg/ml each). After complete drying of the textile pieces, 3 μl of a growing cell culture were added to the surface of the textile pieces. The pieces were irradiated with appropriate radiation (light) for a given period of time. Then, the textile pieces were contacted with agar plates; and the plates were incubated at 37° C. for 24 h.
The contact assay was performed as described in Example 1 using an aqueous solution of diemethyl methylene blue (DMMB) and new methylene blue (NMB), respectively (100 μg/ml each) as well as a combination thereof. Staphylococcus aureus and Klebsiella pneumoniae were employed as test organisms. Irradiation was accomplished by means of a LED (High Power Alustar 3 W 10° LED×ON Rot, from Conrad, Hirschau, Germany) at a wavelength of 623 nm. The distance between the LED and the textile pieces was 50 cm.

Candida albicans [2] = details: dilution 10^−4, incubation period two days longer as compared to control
Experimental: as §1
(§3) Methylene blue (MB), dimethyl methylene blue (DMMB), new metylene blue (NMB), and toluidine blue (TB) were provided as solutions having a dye concentration of 100 μg/ml. 50 μl of either solution were used for plating assays.
(§4) In brief, the plating assays were performed as follows: In a well of a (96 well) microtiter plate 50 μl of a growing cell culture were mixed with aqueous solution of reactive dye, such as methylene blue (100 μg/ml each). The samples were irradiated with appropriate radiation (light) for a given period of time. The samples (100 μl) were plated on agar plates. The plates were incubated at 37° C. for 24 h.

[3] = system: Stenotrophomonas maltophilia; assay: Contact assay on dye-treated textile pieces; format: cell-based; details: for cfu calculated per ml cell culture: plates incubated 48 h
Experimental: as §1
(§5) The textile fabric employed was a clean room textile, in particular ION-NOSTAT VI.2 (Dastex Reinraumzubehör, Muggensturm, Germany). For contact assays, pieces of the textile fabric having a defined size of 1 cm×1 cm were employed.
as §2
(§6) After complete drying of the textile pieces, 3 μl of a growing cell culture were added to the surface of the textile pieces. The pieces were irradiated with appropriate radiation (light) for a given period of time. Then, the textile pieces were contacted with agar plates; and the plates were incubated at 37° C. for 24 h.

Staphylococcus aureus [4] = details: for colony forming units obtained: incubation with dye (3-5 min) without irradiation; for colonies detected: irradiation 3 min
Candida albicans [5] = assay: Contact assay on dye-treated textile pieces; format: cell-based; details: irradiation 1 min, 2 min, 3 min, laser 15 mW, 532 nm
Experimental: as §1, §5, §2, §6

[6] = system: Stenotrophomonas maltophilia; details: dilution 10^−5
Experimental: as §1, §3, §4

[7] = black light lamp, irradiation for 30 s
[8] = black light lamp, irradiation for 3 min
[9] = mercury lamp, irradiation for 30 s
[10] = mercury lamp, irradiation for 3 min
[11] = 1 × pre-irradiation (3 min) of textile before contact with cells
[12] = 2 × pre-irradiation (3 min each, 90 min between) of textile before contact with cells
[13] = Control (dye, no irrad.), dilution 10^−5
[14] = Irradiation for 3 min, dilution 10^−5
[15] = irradiation 3 min, laser 15 mW, 532 nm
[16] = textile immersed in dye 100 μg/ml, irradiation 3 min, laser 15 mW, 532 nm
[17] = textile incubated with dye 100 μg/ml, no irradiation
[18] = incubation with dye, mercury lamp 515-560 nm

In the case of `Cc1cc(N(C)C)cc2[s+]c3cc(N(C)C)cc(C)c3nc12.[Cl-]` [dimethyl methylene blue, 3,7-bis(dimethylamino)-1,9-dimethyldiphenothiazin-5-ium chloride], the “dye released from stained textile pieces” value (single immersion with acetone, acetic acid, and ethanol, data not shown) is reported as “Trace amounts”, the “dye released from stained textile pieces” value (two cycles of immersion in 99% acetone, 99% acetic acid, 1 M NaOH, 99% ethanol, stained with 100 mg/l) is reported as “No dye” and the cell growth (Staphylococcus aureus [1]; LED 623 nm) is reported as “no cell growth could be detected”. The “inhibition of cell growth” value (Klebsiella pneumoniae; about 10^4 cfu) was “significant inhibition of cell growth”, the cell numbers (Klebsiella pneumoniae; after 5 min of irradiation) was “noticeable reduction of cell numbers” and the “reduction of cell numbers” value (Klebsiella pneumoniae; irradiation period of 10 min) was “further increase”.

In the case of `CN(C)c1ccc2nc3ccc(N(C)C)cc3[s+]c2c1.[Cl-]` [methylene blue, 3,7-bis(dimethylamino)-phenothiazin-5-ium chloride], the cfu per ml (Candida albicans [2]; [7]) is reported as 2.7 × 10^7 cfu/ml*, the cfu per ml (Candida albicans [2]; [8]) is reported as 2.3 × 10^7 cfu/ml* and the cfu per ml (Candida albicans [2]; [9]) is reported as 2.3 × 10^7 cfu/ml*. For the same compound, the cfu per ml (Candida albicans [2]; [10]) was 2.2 × 10^7 cfu/ml*, the “cfu calculated per ml cell culture” value [3, 11] was 1.0 × 10^5 cfu/ml and the “cfu calculated per ml cell culture” value [3, 12] was 1.0 × 10^5 cfu/ml. For the same compound, the “cfu calculated per ml cell culture” value [3, 13] was 1.1 × 10^8 cfu/ml, the “cfu calculated per ml cell culture” value [3, 14] was 1.0 × 10^5 cfu/ml and the growth inhibition [3, 15] was “almost complete”. For the same compound, the “colonies (cfu) after contact sampling” value [3, 16] was “two colonies”, the “growth after contact sampling without irradiation” value [3, 17] was “lawn of bacteria” and the cfu per ml (Staphylococcus aureus [4]; black light lamp, irradiation for 30 s, dilution 10^−5) was 1.2 × 10^8 cfu/ml. For the same compound, the cfu per ml (Staphylococcus aureus [4]; black light lamp, irradiation for 3 min, dilution 10^−5) was 1.5 × 10^7 cfu/ml, the “colony forming units obtained” value (Staphylococcus aureus [4]) was 177 cfu and the colonies detected (Staphylococcus aureus [4]; [18]) was “one colony”. The cfu per ml (Staphylococcus aureus [4]; irradiation 2 min with LED1, 620-640 nm, dilution 10^−5) was 1.2×10^7 cfu/ml, the cfu per ml (Staphylococcus aureus [4]; irradiation 2 min with LED2, 620-640 nm, dilution 10^−5) was 2.0×10^6 cfu/ml and the colonies detected (Staphylococcus aureus [4]; black light lamp 350-370 nm, dilution 10^−5) was 15. The colonies detected (Staphylococcus aureus [4]; mercury lamp 515-560 nm, dilution 10^−5) was “No colonies”, the cfu per ml (Staphylococcus aureus [4]; mercury lamp, irradiation for 30 s, dilution 10^−5) was 2.1 × 10^7 cfu/ml and the cfu per ml (Staphylococcus aureus [4]; mercury lamp, irradiation for 3 min, dilution 10^−5) was 1.0 × 10^5 cfu/ml. For the same compound, the “microbial growth upon irradiation” value (Candida albicans [5]) was “significant reduction of microbial growth”, the cfu per ml [6, 7] was 2.9 × 10^7 cfu/ml and the cfu per ml [6, 8] was 0 cfu/ml. For the same compound, the cfu per ml [6, 9] was 1.4 × 10^7 cfu/ml, the cfu per ml [6, 10] was 0 cfu/ml and the “cfu calculated per ml cell culture” value (Staphylococcus aureus [1]; [11]) was 0 cfu/ml. The “cfu calculated per ml cell culture” value (Staphylococcus aureus [1]; [12]) was 0 cfu/ml, the “cfu calculated per ml cell culture” value (Staphylococcus aureus [1]; [13]) was 1.7 × 10^8 cfu/ml and the “cfu calculated per ml cell culture” value (Staphylococcus aureus [1]; [14]) was 0 cfu/ml. For the same compound, the “number of colonies upon irradiation” value (Staphylococcus aureus [1]; irradiation 2 min with LED1, 620-640 nm) was “significant reduction of the number of colonies”, the “number of colonies upon irradiation” value (Staphylococcus aureus [1]; irradiation 2 min with LED2, 620-640 nm) was “significant reduction of the number of colonies” and the growth inhibition (Staphylococcus aureus [1]; [15]) was “complete”. For the same compound, the “colonies (cfu) after contact sampling” value (Staphylococcus aureus [1]; [16]) was “no colonies” and the “growth after contact sampling without irradiation” value (Staphylococcus aureus [1]; [17]) was “lawn of bacteria”.

With `CCNc1cc2[s+]c3cc(NCC)c(C)cc3nc2cc1C.[Cl-]` [new methylene blue, 3,7-bis(ethylamino)-2,8-dimethylphenaza-thionium chloride] the cell growth (Staphylococcus aureus [1]; LED 623 nm) was “only a small reduction of cell growth” and the “reduction of cell growth” value (Staphylococcus aureus [1]; LED 623 nm, irradiation for 2 min and 5 min, data not shown) was “more than 50%”.

In the case of `Cc1cc2nc3ccc(=[N+](C)C)cc-3sc2cc1N.[Cl-]` [toluidine blue], the “colony forming units obtained” value (Staphylococcus aureus [4]) is reported as 89 cfu, the colonies detected (Staphylococcus aureus [4]; [18]) is reported as “no colony” and the “cfu calculated per ml cell culture” value (Staphylococcus aureus [1]; [11]) is reported as 9.0 × 10^4 cfu/ml. For the same compound, the “cfu calculated per ml cell culture” value (Staphylococcus aureus [1]; [12]) was 5.0 × 10^4 cfu/ml, the “cfu calculated per ml cell culture” value (Staphylococcus aureus [1]; [13]) was 8.9 × 10^6 cfu/ml and the “cfu calculated per ml cell culture” value (Staphylococcus aureus [1]; [14]) was 0 cfu/ml.
